{"source": "PubChem BioAssay AID1259407", "about": "(Chemical Carcinogenesis Research Information System (CCRIS), 2018)", "system": "CCRIS mutagenicity, Ames/micronucleus/aberration tests", "assay": "CCRIS mutagenicity studies", "key": {"[1]": {"conditions": "Test System: AMES SALMONELLA TYPHIMURIUM, Strain/Indicator: TA97, Metabolic Activation: NONE, Method: PREINCUBATION"}, "[2]": {"conditions": "Test System: AMES SALMONELLA TYPHIMURIUM, Strain/Indicator: TA98, Metabolic Activation: NONE, Method: PREINCUBATION"}, "[3]": {"conditions": "Test System: AMES SALMONELLA TYPHIMURIUM, Strain/Indicator: TA100, Metabolic Activation: NONE, Method: PREINCUBATION"}, "[4]": {"conditions": "Test System: AMES SALMONELLA TYPHIMURIUM, Strain/Indicator: TA1535, Metabolic Activation: NONE, Method: PREINCUBATION"}}, "note": "Activity calls are given as the source filed them. The rule behind the calls is not given here."}
{"smiles": "[C-]#[O+].[C-]#[O+].[Ni].c1ccc([PH+](c2ccccc2)c2ccccc2)cc1.c1ccc([PH+](c2ccccc2)c2ccccc2)cc1", "values": [{"measurement": "mutagenic call", "setting": "Test System: Ames Salmonella typhimurium, Strain/Indicator: TA100, Metabolic Activation: None, Method: Preincubation", "result": "inactive; negative"}, {"measurement": "mutagenic call", "setting": "Test System: Ames Salmonella typhimurium, Strain/Indicator: TA100, Metabolic Activation: Rat, Liver, S-9, Phenobarbital and 5,6-benzoflavone, Method: Preincubation", "result": "inactive; negative"}, {"measurement": "mutagenic call", "setting": "Test System: Ames Salmonella typhimurium, Strain/Indicator: TA102, Metabolic Activation: None, Method: Preincubation", "result": "inactive; negative"}, {"measurement": "mutagenic call", "setting": "Test System: Ames Salmonella typhimurium, Strain/Indicator: TA102, Metabolic Activation: Rat, Liver, S-9, Phenobarbital and 5,6-benzoflavone, Method: Preincubation", "result": "inactive; negative"}]}
{"smiles": "Cc1ccc(C)c(N)c1", "values": [{"measurement": "mutagenic call", "setting": "Test System: AMES SALMONELLA TYPHIMURIUM, Strain/Indicator: TA97, Metabolic Activation: HAMSTER, LIVER, S-9, AROCLOR 1254 (10%), Method: PREINCUBATION", "result": "inactive; negative"}, {"measurement": "mutagenic call", "setting": "[1]", "result": "inactive; negative"}, {"measurement": "mutagenic call", "setting": "Test System: AMES SALMONELLA TYPHIMURIUM, Strain/Indicator: TA97, Metabolic Activation: RAT, LIVER, S-9, AROCLOR 1254 (10%), Method: PREINCUBATION", "result": "inactive; negative"}, {"measurement": "mutagenic call", "setting": "Test System: AMES SALMONELLA TYPHIMURIUM, Strain/Indicator: TA98, Metabolic Activation: HAMSTER, LIVER, S-9, AROCLOR 1254 (10%), Method: PREINCUBATION", "result": "active; positive"}, {"measurement": "mutagenic call", "setting": "[2]", "result": "inactive; negative"}, {"measurement": "mutagenic call", "setting": "Test System: AMES SALMONELLA TYPHIMURIUM, Strain/Indicator: TA98, Metabolic Activation: RAT, LIVER, S-9, AROCLOR 1254 (10%), Method: PREINCUBATION", "result": "active; positive"}, {"measurement": "mutagenic call", "setting": "Test System: AMES SALMONELLA TYPHIMURIUM, Strain/Indicator: TA100, Metabolic Activation: HAMSTER, LIVER, S-9, AROCLOR 1254 (10%), Method: PREINCUBATION", "result": "active; positive"}, {"measurement": "mutagenic call", "setting": "[3]", "result": "inactive; negative"}, {"measurement": "mutagenic call", "setting": "Test System: AMES SALMONELLA TYPHIMURIUM, Strain/Indicator: TA100, Metabolic Activation: RAT, LIVER, S-9, AROCLOR 1254 (10%), Method: PREINCUBATION", "result": "inactive; negative"}, {"measurement": "mutagenic call", "setting": "Test System: AMES SALMONELLA TYPHIMURIUM, Strain/Indicator: TA1535, Metabolic Activation: HAMSTER, LIVER, S-9, AROCLOR 1254 (10%), Method: PREINCUBATION", "result": "inactive; negative"}, {"measurement": "mutagenic call", "setting": "[4]", "result": "inactive; negative"}, {"measurement": "mutagenic call", "setting": "Test System: AMES SALMONELLA TYPHIMURIUM, Strain/Indicator: TA1535, Metabolic Activation: RAT, LIVER, S-9, AROCLOR 1254 (10%), Method: PREINCUBATION", "result": "inactive; negative"}, {"measurement": "mutagenic call", "setting": "Test System: AMES SALMONELLA TYPHIMURIUM, Strain/Indicator: TA1537, Metabolic Activation: HAMSTER, LIVER, S-9, AROCLOR 1254 (10%), Method: PREINCUBATION", "result": "active; positive"}, {"measurement": "mutagenic call", "setting": "Test System: AMES SALMONELLA TYPHIMURIUM, Strain/Indicator: TA1537, Metabolic Activation: RAT, LIVER, S-9, AROCLOR 1254 (10%), Method: PREINCUBATION", "result": "inactive; negative"}]}
{"smiles": "CCCCC(CC)COC(=O)c1ccc(C(=O)OCC(CC)CCCC)c(C(=O)OCC(CC)CCCC)c1", "note": "(stereo not given)", "values": [{"measurement": "mutagenic call", "setting": "Test System: AMES SALMONELLA TYPHIMURIUM, Strain/Indicator: TA97, Metabolic Activation: HAMSTER, LIVER, S-9, AROCLOR 1254 (10 OR 30%), Method: PREINCUBATION", "result": "inactive; negative"}, {"measurement": "mutagenic call", "setting": "[1]", "result": "inactive; negative"}, {"measurement": "mutagenic call", "setting": "Test System: AMES SALMONELLA TYPHIMURIUM, Strain/Indicator: TA97, Metabolic Activation: RAT, LIVER, S-9, AROCLOR 1254 (10 OR 30%), Method: PREINCUBATION", "result": "inactive; negative"}, {"measurement": "mutagenic call", "setting": "Test System: AMES SALMONELLA TYPHIMURIUM, Strain/Indicator: TA98, Metabolic Activation: HAMSTER, LIVER, S-9, AROCLOR 1254 (10 OR 30%), Method: PREINCUBATION", "result": "inactive; negative"}, {"measurement": "mutagenic call", "setting": "[2]", "result": "inactive; negative"}, {"measurement": "mutagenic call", "setting": "Test System: AMES SALMONELLA TYPHIMURIUM, Strain/Indicator: TA98, Metabolic Activation: RAT, LIVER, S-9, AROCLOR 1254 (10 OR 30%), Method: PREINCUBATION", "result": "inactive; negative"}, {"measurement": "mutagenic call", "setting": "Test System: AMES SALMONELLA TYPHIMURIUM, Strain/Indicator: TA100, Metabolic Activation: HAMSTER, LIVER, S-9, AROCLOR 1254 (10 OR 30%), Method: PREINCUBATION", "result": "inactive; negative"}, {"measurement": "mutagenic call", "setting": "[3]", "result": "inactive; negative"}, {"measurement": "mutagenic call", "setting": "Test System: AMES SALMONELLA TYPHIMURIUM, Strain/Indicator: TA100, Metabolic Activation: RAT, LIVER, S-9, AROCLOR 1254 (10 OR 30%), Method: PREINCUBATION", "result": "inactive; negative"}, {"measurement": "mutagenic call", "setting": "Test System: AMES SALMONELLA TYPHIMURIUM, Strain/Indicator: TA1535, Metabolic Activation: HAMSTER, LIVER, S-9, AROCLOR 1254 (10 OR 30%), Method: PREINCUBATION", "result": "inactive; negative"}, {"measurement": "mutagenic call", "setting": "[4]", "result": "inactive; negative"}, {"measurement": "mutagenic call", "setting": "Test System: AMES SALMONELLA TYPHIMURIUM, Strain/Indicator: TA1535, Metabolic Activation: RAT, LIVER, S-9, AROCLOR 1254 (10 OR 30%), Method: PREINCUBATION", "result": "inactive; negative"}]}
